# Entries after “also recorded” stand apart in the source; their conditions may differ.
# Tests used:
# [1] = test system: Wnt3a-mediated β-catenin signaling in HEK293-TB cells; assay type: cell-based
# [2] = test system: Wnt3a-mediated stabilization of β-catenin in mouse L cells; test: in-cell western of β-catenin protein in L cells treated with Wnt3a; assay type: cell-based
# Procedure: DMSO controls were performed in parallel. Following treatment, the L-cells were fixed, permeabilized, probed with fluorescently labeled anti-β-catenin antibodies, and observed via in-cell western assay (i.e., as described in Hannoush, R. N. (2008) PLoS One 3, e3498) to assess β-catenin protein levels. The values in Table 7 are averages of at least 3 independent replicates, ±standard deviation.
# [3] = test system: receptor-independent β-catenin signaling in 6-BIO-treated HEK293-TB cells; test: epistasis study, HEK293-TB cells stimulated with 6-BIO; assay type: cell-based; settings: 10 μM 6-BIO, 6 hr; FIG. 2E
# hFZD7 CRD-His = target: T1, hFZD7 CRD-His (Homo sapiens, UniProt O75084); test: SEC-MALS of hFZD7 CRD-His incubated with peptide; assay type: binding
# T1 construct: hFZD7 CRD-His [Gln33-Gly168] was expressed as a secreted protein in Trichoplusia ni cells expressing EndoH; made in house; host or cells: Trichoplusia ni cells expressing EndoH, treated with Kifunensine (baculovirus)
# Procedure: Samples were resolved by a Superdex S200 3.2/300 column (General Electric Healthcare Life Science, Pittsburgh, Pa.; cat. no. 28990946) at 0.15 mL/min in 150 mM NaCl, 50 mM Tris-HCl pH 7.5 buffer with 1% DMSO final concentration. Runs were performed on a 1260 infinity HPLC (Agilent Technology, Santa Clara, Calif.) connected to a Dawn Heleos-II multi-angle static Light Scattering (MALS) detector and a Optilab T-rEX differential Refractive Index (dRI) detector (Wyatt Technologies, Santa Barbara, Calif.).
# Samples were resolved by a Superdex S200 3.2/300 column (General Electric Healthcare Life Science, Pittsburgh, Pa.; 28990946) at a 0.15 mL/min in 150 mM NaCl, 50 mM Tris-HCl pH 7.5 buffer with 1% DMSO final concentration. Column was connected to a 1260 infinity HPLC (Agilent Technology, Santa Clara, Calif.) connected to a Dawn Heleos-II Multi-Angle static Light Scattering (MALS) detector and the Optilab T-rEX differential Refractive Index (dRI) detectors (Wyatt Technologies, Santa Barbara, Calif.).
# [4] = test system: Wnt5a binding to FZD1 CRD, FZD2 CRD, and FZD7 CRD; test: ELISA of biotinylated Wnt5a binding to FZD CRD-Fc; settings: FIGS. 22A, 22B
# Procedure: (§1) 384-well Maxisorp plates (cat. no. 464718; Thermo Scientific) were incubated with 30 μL of Neutravidin (cat. no. 31000, Thermo Scientific; 2 μg/mL in PBS) overnight at 4° C. Plates were then washed with PBST and blocked with PBS/1% BSA for 1 hour at RT and then washed with PBST prior to further processing. The binding assay was conducted in 96 well plates (cat no. 83007-374; VWR) which were blocked with PBS/1% BSA overnight at 4° C. hFZD4 CRD-Fc or hFZD7 CRD-Fc (63 ng/mL) were incubated with either Bio-Wnt3a (25 ng/mL) or Bio-Wnt5a (50 ng/mL) in the presence of 4-fold serial dilutions of the indicated peptide in PBS overnight at 4° C. All assays included hFZD9 CRD-mIgG2A protein as a negative control. hFZD7 CRD-His was suspended in 150 mM NaCl, 50 mM Tris-HCl at pH 7.5 and when used in assays an equal volume of the same buffer control was used. The binding assay mixtures were transferred to the Neutravidin coated plates and incubated for ˜1 h at RT. The wells were then washed with PBST, incubated with anti-hIgG1-HRP (1:10,000 suspended in PBS supplemented with 1% BSA; cat. no. A18817, Invitrogen), and washed again with PBST. The signal was developed with the addition of TMB reagent (following the manufacturer's recommendation; KPL; 50-76-00) for 15 min prior to the addition of an equal volume of 1 M phosphoric acid for 10 min Absorbance was measured at 450 nm using a Tekan M1000 plate reader. Values were collected and plotted using Prism Graphpad software. All assay conditions using peptides were at 1% DMSO final concentration. […]
# (§2) Briefly, the assays were performed using (a) FZD1 CRD-Fc, (b) FZD2 CRD-Fc, (c) FZD4 CRD-Fc, or (d) FZD7 CRD-Fc as the capture reagent and biotinylated-Wnt5a as the detection reagent. […] Streptavidin-HRP was used to detect biotinylated Wnt5a, and HRP activity was measured as a function of chemiluminescence detection at 428 nm. […]
# [5] = target: T2, Wnt5a binding to FZD4 CRD (Homo sapiens, UniProt Q9ULV1); test: ELISA of biotinylated Wnt5a binding to FZD CRD-Fc; settings: peptide 0-10 μM
# T2 construct: hFZD4 CRD-Fc (cat no. 5847-FZ); purchased R&D systems 5847-FZ
# T2 sequence (Q9ULV1 40-161 limits assumed): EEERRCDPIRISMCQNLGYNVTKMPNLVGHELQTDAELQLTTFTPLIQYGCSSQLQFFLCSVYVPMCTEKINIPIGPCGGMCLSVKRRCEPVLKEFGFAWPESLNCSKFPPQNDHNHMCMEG
# Procedure: as §1, §2
# [6] = target: T3, Wnt3a binding to FZD4 CRD (Homo sapiens, UniProt Q9ULV1); test: ELISA of biotinylated Wnt3a binding to FZD CRD-Fc; settings: peptide 0-10 μM
# T3 construct: hFZD4 CRD-Fc (cat no. 5847-FZ); purchased R&D systems 5847-FZ
# T3 sequence (Q9ULV1 40-161 limits assumed): T2 sequence (Q9ULV1 40-161 limits assumed)
# Procedure: 384-well Maxisorp plates (cat. no. 464718; Thermo Scientific) were incubated with 30 μL of Neutravidin (cat. no. 31000, Thermo Scientific; 2 μg/mL in PBS) overnight at 4° C. Plates were then washed with PBST and blocked with PBS/1% BSA for 1 hour at RT and then washed with PBST prior to further processing. The binding assay was conducted in 96 well plates (cat no. 83007-374; VWR) which were blocked with PBS/1% BSA overnight at 4° C. hFZD4 CRD-Fc or hFZD7 CRD-Fc (63 ng/mL) were incubated with either Bio-Wnt3a (25 ng/mL) or Bio-Wnt5a (50 ng/mL) in the presence of 4-fold serial dilutions of the indicated peptide in PBS overnight at 4° C. All assays included hFZD9 CRD-mIgG2A protein as a negative control. hFZD7 CRD-His was suspended in 150 mM NaCl, 50 mM Tris-HCl at pH 7.5 and when used in assays an equal volume of the same buffer control was used. The binding assay mixtures were transferred to the Neutravidin coated plates and incubated for ˜1 h at RT. The wells were then washed with PBST, incubated with anti-hIgG1-HRP (1:10,000 suspended in PBS supplemented with 1% BSA; cat. no. A18817, Invitrogen), and washed again with PBST. The signal was developed with the addition of TMB reagent (following the manufacturer's recommendation; KPL; 50-76-00) for 15 min prior to the addition of an equal volume of 1 M phosphoric acid for 10 min Absorbance was measured at 450 nm using a Tekan M1000 plate reader. Values were collected and plotted using Prism Graphpad software. All assay conditions using peptides were at 1% DMSO final concentration.
# Without being bound be theory, the substantial conformational change induced by dFz7-21 on hFZD7 CRD, as exemplified by the altered geometry of the lipid binding cavity, may facilitate the accommodation of two Wnt molecules simultaneously onto the hFZD7 CRD dimer (FIG. 4e-h).
# Similar results were observed using Wnt3a. […] Binding of Wnt3a to FZD1 CRD, FZD2 CRD, and FZD7 CRD increased in the presence of dFz7-21 at concentrations below about 0.5 μM (FIG. 22E), with the most binding seen in the presence of 0.01 μM-0.05 μM dFz7-21. […] Fz7-21S had no effect on Binding of Wnt3a to any of the FZD CRDs tested (FIG. 22F).
sequence,measurement,setting,value
LPSDDLEFWCHVMY [Fz7-21],HEK293S-TB % Remaining Activity,"[1]; measured at 100 μM peptide, mean ± standard deviation",5.15 ± 2.88%
same,IC50,"[1]; read-out: IC50, Wnt3a-stimulated β-catenin signaling",90 to 100 nM
same,L CELLS % Remaining Activity,[2]; measured at 11.11 μM of peptide,50.98^G ± 3.76%
same,Wnt3a-mediated stabilization of β-catenin,[2]; mouse L cells,blocked
same,IC50,"[2]; β-catenin by immunofluorescence, Wnt3a 2.5 nM, 5 hours, mean ± standard deviation",50 ± 30 nM
same,inhibition of Wnt signaling in 6-BIO-treated cells,[3],Neither Fz7-21 nor Fz7-21S inhibited
same,ΔMW (kDa),"hFZD7 CRD-His; 1:5, relative to the DMSO control",6.4 kDa
same,homodimerization or oligomerization of hFZD7 CRD-His,hFZD7 CRD-His; concentration-dependent,induced homodimerization or oligomerization
same,MW (kDa),"hFZD7 CRD-His; hFZD7 CRD 15.8 μM, protein:peptide 1:1, 2 h",21.9 kDa
same,MW (kDa),hFZD7 CRD-His; protein:peptide 1:5,27.3 kDa
same,MW (kDa),hFZD7 CRD-His; protein:peptide 1:10,32 kDa
same,peptide concentration with the most Wnt5a binding,[4],0.1 µM
same,effect on Wnt5a binding to FZD4 CRD,[5],did not show any effect; also recorded: no such effect
same,effect on Wnt3a binding to FZD4 CRD,[6],did not show any effect; also recorded: Neither Fz7-21 nor dFz7-21 had any effect
